Source: article PMC3558989 (Journal of Chemotherapy (Florence, Italy), 2013)

Experiments:
[1] = tested on: MSSA 29213, MRSA A6250596 (fluoroquinolone-resistant) and MRSA A7080336; test: Further combination study of AFN-1252; type: cell-based, S. aureus; conditions: three strains
[2] = tested on: 20 strains of staphylococci, including 10 MRSA; test: MIC with and without pulmonary surfactant, all strains; type: cell-based, S. aureus; conditions: for effect of pulmonary surfactant on MICs: in words
[3] = tested on: MRSA 1659; test: Effect of serum on rate of kill; type: cell-based, S. aureus; conditions: for reduction in the viable count: 10 hours
[4] = tested on: serum proteins of mouse, rat, dog and humans; test: Serum protein-binding assays, summary over methods and species; type: in vitro ADME, human
[5] = tested on: S. aureus Smith; conditions: single oral dose of 1 mg/kg, mouse; cited from earlier work
[6] = in vitro; conditions: mouse
[7] = tested on: MSSA 29213; test: Effect of serum binding on MIC

Molecule: penicillin
- interaction with AFN-1252 [1]: did not detect any synergy or antagonism

Molecule: C[C@H]1COc2c(N3CCN(C)CC3)c(F)cc3c(=O)c(C(=O)O)cn1c23 [Levofloxacin]
- interaction with AFN-1252 [1]: did not detect any synergy or antagonism

Molecule: C[C@@H](O)[C@H]1C(=O)N2C(C(=O)O)=C(S[C@@H]3CN[C@H](C(=O)N(C)C)C3)[C@H](C)[C@H]12 [meropenem]
- interaction with AFN-1252 [1]: did not detect any synergy or antagonism

Molecule: CC[C@H]1OC(=O)[C@H](C)[C@@H](O[C@H]2C[C@@](C)(OC)[C@@H](O)[C@H](C)O2)[C@H](C)[C@@H](O[C@@H]2O[C@H](C)C[C@H](N(C)C)[C@H]2O)[C@](C)(O)C[C@@H](C)CN(C)[C@H](C)[C@@H](O)[C@]1(C)O [azithromycin]
- interaction with AFN-1252 [1]: did not detect any synergy or antagonism

Molecule: CN[C@H](CC(C)C)C(=O)N[C@H]1C(=O)N[C@@H](CC(N)=O)C(=O)N[C@H]2C(=O)N[C@H]3C(=O)N[C@H](C(=O)N[C@H](C(=O)O)c4cc(O)cc(O)c4-c4cc3ccc4O)[C@H](O)c3ccc(c(Cl)c3)Oc3cc2cc(c3O[C@@H]2O[C@H](CO)[C@@H](O)[C@H](O)[C@H]2O[C@H]2C[C@](C)(N)[C@H](O)[C@H](C)O2)Oc2ccc(cc2Cl)[C@H]1O [Vancomycin]
- effect of pulmonary surfactant on MICs [2]: generally unaffected

Molecule: CCCCCCCCCC(=O)N[C@@H](Cc1c[nH]c2ccccc12)C(=O)N[C@H](CC(N)=O)C(=O)N[C@@H](CC(=O)O)C(=O)N[C@@H]1C(=O)NCC(=O)N[C@@H](CCCN)C(=O)N[C@@H](CC(=O)O)C(=O)N[C@H](C)C(=O)N[C@@H](CC(=O)O)C(=O)NCC(=O)N[C@H](CO)C(=O)N[C@@H]([C@H](C)CC(=O)O)C(=O)N[C@@H](CC(=O)c2ccccc2N)C(=O)O[C@@H]1C [Daptomycin]
- elevation of MICs ([2]; presence of surfactant at 0·8 mg/ml): at least 32 fold

Molecule: CO/N=C(\C(=O)N[C@@H]1C(=O)N2C(C(=O)O)=C(COC(N)=O)CS[C@H]12)c1ccco1 [Cefuroxime]
- interaction with AFN-1252 [1]: did not detect any synergy or antagonism

Molecule: COc1c(N2CCNC(C)C2)c(F)cc2c(=O)c(C(=O)O)cn(C3CC3)c12 (stereo not shown) [gatifloxacin]
- interaction with AFN-1252 [1]: did not detect any synergy or antagonism

Molecule: Cc1c(CN(C)C(=O)/C=C/c2cnc3c(c2)CCC(=O)N3)oc2ccccc12 [AFN-1252]
- effect on viable count ([3]; 75% human serum, 8× MIC): bacteriostatic activity
- reduction in the viable count ([3]; 75% human serum, 64× MIC): 2 log10
- effect on viable count ([3]; 75% mouse serum, 64× MIC): bacteriostasis
- reduction in the viable count ([3]; absence of serum, 4× MIC): 1–2 log10
- reduction in the viable count ([3]; absence of serum, 64× MIC): 4 log
- effect of pulmonary surfactant on MICs [2]: not affected
- serum binding, equilibrium dialysis ([4]; all serum types, all concentrations): exceeded 95%
- binding to serum proteins ([4]; mouse, rat, dog and humans, overall): ~95%
- protection from lethal peritoneal infection [5]: 100%
- fraction unbound [6]: 0.06 to 0.08
- increase in MIC ([7]; 4% human serum albumin in CAMHB): 8 fold
- increase in MIC ([7]; 50% human serum vs serum-free CAMHB): 8 fold
- binding from MIC shift ([7]; 50% serum): approximately 90%

Molecule: CO/N=C(\C(=O)N[C@@H]1C(=O)N2C(C(=O)O)=C(CSc3nc(=O)c(=O)[nH]n3C)CS[C@H]12)c1csc(N)n1 [ceftriaxone]
- interaction with AFN-1252 [1]: did not detect any synergy or antagonism
